The record followed here is patent publication US7625897B2, “Non-nucleoside reverse transcriptase inhibitors” (Roche Palo Alto LLC, priority 2005, dated 2009).

In one series the target is HIV-1 RT (Human immunodeficiency virus type 1 group M subtype B, UniProt P03366). The series can be described thus: HIV Reverse Transcriptase Assay: Inhibitor IC50 determination. The format is biochemical. The method, then:
HIV Reverse Transcriptase Assay: Inhibitor IC50 determination
HIV-1 RT assay was carried out in 96-well Millipore MultiScreen MADVNOB50 plates using purified recombinant enzyme and a poly(rA)/oligo(dT)16 template-primer in a total volume of 50 μL. The assay constituents were 50 mM Tris/HCl, 50 mM NaCl, 1 mM EDTA, 6 mM MgCl2, 5 μM dTTP, 0.15 μCi [^3H] dTTP, 5 μg/ml poly (rA) pre annealed to 2.5 μg/ml oligo (dT)16 and a range of inhibitor concentrations in a final concentration of 10% DMSO. Reactions were initiated by adding 4 nM HIV-1 RT and after incubation at 37° C. for 30 min, they were stopped by the addition of 50 μl ice cold 20% TCA and allowed to precipitate at 4° C. for 30 min. The precipitates were collected by applying vacuum to the plate and sequentially washing with 3×200 μl of 10% TCA and 2×200 μl 70% ethanol. Finally, the plates were dried and radioactivity counted in a Packard TopCounter after the addition of 25 μl scintillation fluid per well. IC50's were calculated by plotting % inhibition versus log10 inhibitor concentrations.

For a further series, the system named is HIV. The experiment in a line: Anti-viral Assay (method of Pauwels et al.). The format is cell-based. The following applies: Human immunodeficiency virus 1; TABLE 3. The procedure:
Anti-viral assays were carried out by the method described by R. E. Pauwels et al. J Virol. Methods 1988 20(4):309-322.

The mark [1] stands for this setting: TABLE 3, read-out: RT inhibition IC50.
The mark [2] stands for this setting: TABLE I, purified recombinant enzyme, poly(rA)/oligo(dT)16 template-primer, read-out: HIV-RT IC50 RT.

Structures are written as SMILES. Where two headings read alike, the source gives them in different places.

For orientation: IC50 means the point on the concentration scale where inhibition reaches its midpoint. As usually defined, the EC50 is the concentration needed to bring the measured effect to its halfway point. A low value points to greater potency. By melting point is commonly meant the temperature of the solid-liquid transition. On to `C[C@H]1NC(Cc2ccc(Cl)c(Oc3cc(C#N)cc(C#N)c3)c2F)=NNC1=O` [Compound I-5, 5-[6-Chloro-2-fluoro-3-((R)-5-methyl-6-oxo-1,4,5,6-tetrahydro-[1,2,4]triazin-3-ylmethyl)-phenoxy]-isophthalonitrile], for which the melting point was 81.5 to 100 °C. At HIV-1 RT (setting [1]), the IC50 was 32 nM. In addition, the IC50 at HIV-1 RT (setting [2]) stood at 31.8 nM. A half-maximal response in the series with HIV (EC50) required 12.2 nM.
Taken in the same sequence, the figures for `C[C@H]1NC(Cc2ccc(Cl)c(Oc3cc(Cl)cc(C#N)c3)c2F)=NNC1=O` [Compound I-15, 3-Chloro-5-[6-chloro-2-fluoro-3-((R)-5-methyl-6-oxo-1,4,5,6-tetrahydro-[1,2,4]triazin-3-ylmethyl)-phenoxy]-benzonitrile] were 158.6 to 159.9 °C, 11 nM, 11.1 nM and 8.3 nM.
Compound `Cc1nc(Cc2ccc(Cl)c(Oc3cc(C#N)cc(C#N)c3)c2F)n[nH]c1=O` [II-5, 5-[6-chloro-2-fluoro-3-(5-methyl-6-oxo-1,6-dihydro-[1,2,4]triazin-3-ylmethyl)-phenoxy]-isophthalonitrile] yielded a melting point of 194.7 to 197.4 °C. Also, at HIV-1 RT (TABLE II, purified recombinant enzyme, poly(rA)/oligo(dT)16 template-primer, read-out: HIV-RT IC50 RT), the IC50 came out at 432 nM.
